Source: US8247211B2, “Glycopeptide antibiotics” (American Cyanamid Company, priority 2001, dated 2012)

How the values were obtained:
Test in all cases: In vitro antibacterial evaluation: minimum inhibitory concentration (MIC), broth dilution method
Format in all cases: cell-based
Streptococcus sp. = system: Streptococcus sp.
How it was run: (§1)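 MIC by broth dilution in Mueller-Hinton II medium following NCCLS M7-A2. Inoculum was 5×10^5 CFU/mL and antibiotic was tested over 64-0.06 μg/mL. Gram-positive panel included clinical isolates resistant to methicillin, penicillin and/or vancomycin.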

Escherichia coli = system: Escherichia coli
How it was run: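 First, organisms are seeded at 5×10^5 CFU/mL into Muller-Hinton II […]. Next, antibiotic is applied across 64-0.06 μg/mL by broth dilution (NCCLS M7-A2). Finally, the lowest inhibitory concentration is recorded as MIC.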

Staphylococcus sp. = system: Staphylococcus sp.
How it was run: as §1

Enterococcus sp. = system: Enterococcus sp.
How it was run: as §1

[1] = broth dilution, inoculum 5×10^5 CFU/mL, 18 hours at 35° C.
[2] = broth dilution, 18 hours at 35° C.

Cc1ccc(COCC2OC(OC3C(CO)OC(Oc4ccc(CC5NC(=O)C(C(C)c6ccccc6)NC(=O)CNC(=O)C(CO)NC(=O)C(C(O)C6CNC(=N)N6C6OC(CO)C(O)C(O)C6O)NC(=O)C(C(O)C6CNC(=N)N6)NC5=O)cc4)C(O)C3O)C(O)C(O)C2O)cc1 (centres unmarked) [Example 234]
0.25 µg/mL: MIC Streptococcus pneumoniae (ATCC 6301) (Streptococcus sp.; Streptococcus pneumoniae (ATCC 6301), 18 hours at 35° C.) | MIC Streptococcus pneumoniae (GC 4565) (Streptococcus sp.; Streptococcus pneumoniae (GC 4565), 18 hours at 35° C.) | MIC Streptococcus pneumoniae (ATCC 6301) (Streptococcus sp.; [1]) | MIC Streptococcus pneumoniae (GC 4565) (Streptococcus sp.; [1])
0.5 µg/mL: MIC Streptococcus agalactiae (GC 4564) (Streptococcus sp.; Streptococcus agalactiae (GC 4564), 18 hours at 35° C.) | MIC Streptococcus pyogenes (GC 4563) (Streptococcus sp.; Streptococcus pyogenes (GC 4563), 18 hours at 35° C.) | MIC Streptococcus agalactiae (GC 4564) (Streptococcus sp.; [1]) | MIC Streptococcus pyogenes (GC 4563) (Streptococcus sp.; [1]) | MIC Coagulase Negative Staphylococcus (GC 4549) (Staphylococcus sp.; Coagulase Negative Staphylococcus (GC 4549), 18 hours at 35° C.)
64 µg/mL: MIC Escherichia coli (ATCC 25922) (Escherichia coli; Escherichia coli (ATCC 25922), 18 hours at 35° C.) | MIC Escherichia coli (GC 4559) (Escherichia coli; Escherichia coli (GC 4559), 18 hours at 35° C.)
1 µg/mL: MIC Escherichia coli (GC 4560) (Escherichia coli; Escherichia coli (GC 4560), 18 hours at 35° C.) | MIC Coagulase Negative Staphylococcus (GC 4547) (Staphylococcus sp.; Coagulase Negative Staphylococcus (GC 4547), 18 hours at 35° C.) | MIC Coagulase Negative Staphylococcus (GC 4548) (Staphylococcus sp.; Coagulase Negative Staphylococcus (GC 4548), 18 hours at 35° C.) | MIC Coagulase Negative Staphylococcus (GC 6257) (Staphylococcus sp.; Coagulase Negative Staphylococcus (GC 6257), 18 hours at 35° C.) | MIC Staphylococcus haemolyticus (GC 4546) (Staphylococcus sp.; Staphylococcus haemolyticus (GC 4546), 18 hours at 35° C.)
0.12 µg/mL: MIC Streptococcus pneumoniae (GC 1894) (Streptococcus sp.; Streptococcus pneumoniae (GC 1894), 18 hours at 35° C.) | MIC Streptococcus pneumoniae (GC 1894) (Streptococcus sp.; [1])
8 µg/mL: MIC Enterococcus avium (GC 4558) (Enterococcus sp.; Enterococcus avium (GC 4558), 18 hours at 35° C.) | MIC Enterococcus faecalis (ATCC 29212) (Enterococcus sp.; Enterococcus faecalis (ATCC 29212), 18 hours at 35° C.) | MIC Enterococcus faecalis (GC 2691) (Enterococcus sp.; Enterococcus faecalis (GC 2691), 18 hours at 35° C.) | MIC Enterococcus faecalis (GC 3059) (Enterococcus sp.; Enterococcus faecalis (GC 3059), 18 hours at 35° C.) | MIC Enterococcus faecalis (GC 4552) (Enterococcus sp.; Enterococcus faecalis (GC 4552), 18 hours at 35° C.) | MIC Enterococcus faecalis (GC 4553) (Enterococcus sp.; Enterococcus faecalis (GC 4553), 18 hours at 35° C.) | MIC Enterococcus faecalis (GC 4554) (Enterococcus sp.; Enterococcus faecalis (GC 4554), 18 hours at 35° C.) | MIC Enterococcus faecalis (GC 6189) (Enterococcus sp.; Enterococcus faecalis (GC 6189), 18 hours at 35° C.) | MIC Enterococcus faecium (GC 2243) (Enterococcus sp.; Enterococcus faecium (GC 2243), 18 hours at 35° C.) | MIC Enterococcus faecium (GC 4556) (Enterococcus sp.; Enterococcus faecium (GC 4556), 18 hours at 35° C.) | MIC Enterococcus faecalis (GC 2691) (Enterococcus sp.; [1]) | MIC Enterococcus faecalis (GC 3059) (Enterococcus sp.; [1])
4 µg/mL: MIC Enterococcus faecalis (GC 2242) (Enterococcus sp.; Enterococcus faecalis (GC 2242), 18 hours at 35° C.) | MIC Enterococcus faecalis (GC 2242) (Enterococcus sp.; [1])
2 µg/mL: MIC Coagulase Negative Staphylococcus (GC 4551) (Staphylococcus sp.; Coagulase Negative Staphylococcus (GC 4551), 18 hours at 35° C.) | MIC Staphylococcus aureus (ATCC 29213) (Staphylococcus sp.; Staphylococcus aureus (ATCC 29213), 18 hours at 35° C.) | MIC Staphylococcus aureus (GC 1131) (Staphylococcus sp.; Staphylococcus aureus (GC 1131), 18 hours at 35° C.) | MIC Staphylococcus aureus (GC 3051) (Staphylococcus sp.; Staphylococcus aureus (GC 3051), 18 hours at 35° C.) | MIC Staphylococcus aureus (GC 3053) (Staphylococcus sp.; Staphylococcus aureus (GC 3053), 18 hours at 35° C.) | MIC Staphylococcus aureus (GC 4541) (Staphylococcus sp.; Staphylococcus aureus (GC 4541), 18 hours at 35° C.) | MIC Staphylococcus aureus (GC 4542) (Staphylococcus sp.; Staphylococcus aureus (GC 4542), 18 hours at 35° C.) | MIC Staphylococcus aureus (GC 4544) (Staphylococcus sp.; Staphylococcus aureus (GC 4544), 18 hours at 35° C.) | MIC Staphylococcus aureus (GC 4545) (Staphylococcus sp.; Staphylococcus aureus (GC 4545), 18 hours at 35° C.) | MIC Staphylococcus aureus-SMITH (GC 4543) (Staphylococcus sp.; Staphylococcus aureus-SMITH (GC 4543), 18 hours at 35° C.) | MIC Enterococcus faecium (GC 4557) (Enterococcus sp.; Enterococcus faecium (GC 4557), 18 hours at 35° C.)

CC(c1ccccc1)C1NC(=O)CNC(=O)C(CO)NC(=O)C(C(O)C2CN(c3nc4ccccc4s3)C(=N)N2C2OC(CO)C(O)C(O)C2O)NC(=O)C(C(O)C2CNC(=Nc3nc4ccccc4s3)N2)NC(=O)C(Cc2ccc(OC3OC(CO)C(OC4OC(CO)C(O)C(O)C4O)C(O)C3O)cc2)NC1=O (stereo not drawn) [Example 94, Cyclo[glycyl-β-methylphenylalanyl-O-(4-O-hexopyranosylhexopyranosyl)tyrosyl-3-[2-(1,3-benzothiazol-2-ylimino)imidazolidin-4-yl]seryl-3-[1-(1,3-benzo-thiazol-2-yl)-2-imino-3-hexonyranosylimidazolidin-4-yl]serylseryl]]
>64 µg/mL: MIC Streptococcus agalactiae (GC 4564) (Streptococcus sp.; Streptococcus agalactiae (GC 4564), broth dilution, 18 hours at 35° C.) | MIC Streptococcus pneumoniae (ATCC 6301) (Streptococcus sp.; Streptococcus pneumoniae (ATCC 6301), broth dilution, 18 hours at 35° C.) | MIC Streptococcus pneumoniae (GC 1894) (Streptococcus sp.; Streptococcus pneumoniae (GC 1894), broth dilution, 18 hours at 35° C.) | MIC Streptococcus pneumoniae (GC 4565) (Streptococcus sp.; Streptococcus pneumoniae (GC 4565), broth dilution, 18 hours at 35° C.) | MIC Streptococcus pyogenes (GC 4563) (Streptococcus sp.; Streptococcus pyogenes (GC 4563), broth dilution, 18 hours at 35° C.) | MIC Streptococcus pneumoniae (ATCC 6301) (Streptococcus sp.; strain ATCC 6301) | MIC Streptococcus pneumoniae (GC 1894) (Streptococcus sp.; strain GC 1894) | MIC Streptococcus pyogenes (GC 4563) (Streptococcus sp.; strain GC 4563) | MIC Streptococcus agalactiae (GC 4564) (Streptococcus sp.; strain GC 4564) | MIC Streptococcus pneumoniae (GC 4565) (Streptococcus sp.; strain GC 4565) | MIC Escherichia coli (ATCC 25922) (Escherichia coli; strain ATCC 25922) | MIC Escherichia coli (GC 4559) (Escherichia coli; strain GC 4559) | MIC Staphylococcus aureus (ATCC 29213) (Staphylococcus sp.; [2]) | MIC Staphylococcus aureus (GC 1131) (Staphylococcus sp.; [2]) | MIC Staphylococcus aureus (GC 3051) (Staphylococcus sp.; [2]) | MIC Staphylococcus aureus (GC 3053) (Staphylococcus sp.; [2]) | MIC Staphylococcus aureus (GC 4541) (Staphylococcus sp.; [2]) | MIC Staphylococcus aureus (GC 4542) (Staphylococcus sp.; [2]) | MIC Staphylococcus aureus (GC 4544) (Staphylococcus sp.; [2]) | MIC Staphylococcus aureus (GC 4545) (Staphylococcus sp.; [2]) | MIC Staphylococcus aureus-SMITH (GC 4543) (Staphylococcus sp.; strain GC 4543, 18 hours at 35° C.) | MIC Staphylococcus haemolyticus (GC 4546) (Staphylococcus sp.; strain GC 4546) | MIC Coagulase Negative Staphylococcus (GC 4547) (Staphylococcus sp.; strain GC 4547) | MIC Coagulase Negative Staphylococcus (GC 4548) (Staphylococcus sp.; strain GC 4548) | MIC Coagulase Negative Staphylococcus (GC 4549) (Staphylococcus sp.; strain GC 4549) | MIC Coagulase Negative Staphylococcus (GC 4551) (Staphylococcus sp.; strain GC 4551) | MIC Staphylococcus aureus-SMITH (GC 4543) (Staphylococcus sp.; strain SMITH GC 4543, broth dilution, 18 hours at 35° C.) | MIC Enterococcus faecalis (GC 2242) (Enterococcus sp.; Enterococcus faecalis (GC 2242), broth dilution, 18 hours at 35° C.) | MIC Enterococcus faecalis (GC 2691) (Enterococcus sp.; Enterococcus faecalis (GC 2691), broth dilution, 18 hours at 35° C.) | MIC Enterococcus faecalis (GC 3059) (Enterococcus sp.; Enterococcus faecalis (GC 3059), broth dilution, 18 hours at 35° C.) | MIC Enterococcus faecalis (ATCC 29212) (Enterococcus sp.; strain ATCC 29212) | MIC Enterococcus faecalis (GC 2242) (Enterococcus sp.; strain GC 2242) | MIC Enterococcus faecium (GC 2243) (Enterococcus sp.; strain GC 2243) | MIC Enterococcus faecalis (GC 2691) (Enterococcus sp.; strain GC 2691) | MIC Enterococcus faecalis (GC 3059) (Enterococcus sp.; strain GC 3059) | MIC Enterococcus faecalis (GC 4552) (Enterococcus sp.; strain GC 4552) | MIC Enterococcus faecalis (GC 4553) (Enterococcus sp.; strain GC 4553) | MIC Enterococcus faecalis (GC 4554) (Enterococcus sp.; strain GC 4554) | MIC Enterococcus faecium (GC 4556) (Enterococcus sp.; strain GC 4556) | MIC Enterococcus faecium (GC 4557) (Enterococcus sp.; strain GC 4557) | MIC Enterococcus avium (GC 4558) (Enterococcus sp.; strain GC 4558) | MIC Enterococcus faecalis (GC 6189) (Enterococcus sp.; strain GC 6189)
64 µg/mL: MIC Escherichia coli (GC 4560) (Escherichia coli; strain GC 4560)
